Laboratory results published in patent publication US12077503B2, “Substituted cyclic amides and their use as herbicides” (FMC CORPORATION, priority 2015, dated 2024).

What was measured:
Type in all cases: in vivo
[1] = tested on: velvetleaf (Abutilon theophrasti); assay: Test G Pre-Emergence Protocol; settings: Abutilon theophrasti, pre-emergence, 312 h, evaluated after 13 days; for pest or weed control at 15.625 g/ha: 15.625 g ai/ha; for pest or weed control at 15.625 g/ha / pest or weed control at 250 g/ha: read-out: Velvetleaf damage rating (100=total damage to plant; 0=no damage to plant); for pest or weed control at 62.5 g/ha: 62.5 g ai/ha, 100=total damage to plant, 0=no damage to plant, read-out: plant damage rating, Velvetleaf; for pest or weed control at 250 g/ha: 250 g ai/ha
Method in brief: (§1)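 Pots of seeds in standard soil were grown for one day in a glasshouse (24/16 °C day/night, 14 h light, 65% humidity), then sprayed with compound in acetone/water 50:50 with 0.5% Tween 20 at 15.625, 62.5 or 250 g/ha. Damage was scored after 13 days on a 0 (none) to 100 (total) scale.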

[2] = tested on: ivy-leaved morning glory (Ipomoea hederacea); assay: Test G Pre-Emergence Protocol; settings: Ipomoea, pre-emergence, 312 h, evaluated after 13 days; for pest or weed control at 15.625 g/ha: 15.625 g ai/ha, read-out: Morning-glory, Ivy-leaved damage rating (100=total damage to plant; 0=no damage to plant); for pest or weed control at 62.5 g/ha: 62.5 g ai/ha, 100=total damage to plant, 0=no damage to plant, read-out: plant damage rating, Morningglory, Ivy-leaved; for pest or weed control at 250 g/ha: 250 g ai/ha, read-out: Morningglory, Ivy-leaved damage rating (100=total damage to plant; 0=no damage to plant)
Method in brief: as §1

[3] = tested on: redroot pigweed (Amaranthus retroflexus); assay: Test G Pre-Emergence Protocol; settings: Amaranthus retroflexus, pre-emergence, 312 h, evaluated after 13 days; for pest or weed control at 15.625 g/ha: 15.625 g ai/ha; for pest or weed control at 15.625 g/ha / pest or weed control at 250 g/ha: read-out: Pigweed, Redroot damage rating (100=total damage to plant; 0=no damage to plant); for pest or weed control at 62.5 g/ha: 62.5 g ai/ha, 100=total damage to plant, 0=no damage to plant, read-out: plant damage rating, Pigweed, Redroot; for pest or weed control at 250 g/ha: 250 g ai/ha
Method in brief: as §1

corn (Zea mays) [4] = assay: Test G Pre-Emergence Protocol; settings: Zea mays, pre-emergence, 312 h, evaluated after 13 days; for plant injury at 15.625 g/ha: 15.625 g ai/ha; for plant injury at 15.625 g/ha / plant injury at 250 g/ha: read-out: Corn damage rating (100=total damage to plant; 0=no damage to plant); for plant injury at 62.5 g/ha: 62.5 g ai/ha, 100=total damage to plant, 0=no damage to plant, read-out: plant damage rating, Corn; for plant injury at 250 g/ha: 250 g ai/ha
Method in brief: as §1

[5] = tested on: giant foxtail (Setaria faberi); assay: Test G Pre-Emergence Protocol; settings: Setaria faberi, pre-emergence, 312 h, evaluated after 13 days; for pest or weed control at 15.625 g/ha: 15.625 g ai/ha; for pest or weed control at 15.625 g/ha / pest or weed control at 250 g/ha: read-out: Foxtail, Giant damage rating (100=total damage to plant; 0=no damage to plant); for pest or weed control at 62.5 g/ha: 62.5 g ai/ha, 100=total damage to plant, 0=no damage to plant, read-out: plant damage rating, Foxtail, Giant; for pest or weed control at 250 g/ha: 250 g ai/ha
Method in brief: as §1

[6] = tested on: barnyardgrass (Echinochloa crus-galli); assay: Test G Pre-Emergence Protocol; settings: Echinochloa crus-galli, pre-emergence, 312 h, evaluated after 13 days; for pest or weed control at 15.625 g/ha: 15.625 g ai/ha, read-out: Barnyard grass damage rating (100=total damage to plant; 0=no damage to plant); for pest or weed control at 62.5 g/ha: 62.5 g ai/ha, 100=total damage to plant, 0=no damage to plant, read-out: plant damage rating, Barnyardgrass; for pest or weed control at 250 g/ha: 250 g ai/ha, read-out: Barnyardgrass damage rating (100=total damage to plant; 0=no damage to plant)
Method in brief: as §1

[7] = tested on: velvetleaf (Abutilon theophrasti); assay: Test G Post-Emergence Protocol; settings: Abutilon theophrasti, post-emergence, 312 h; for pest or weed control at 15.625 g/ha: 15.625 g ai/ha, evaluated after 13 days (100=total damage to plant; 0=no damage to plant), read-out: Velvetleaf damage rating; for pest or weed control at 62.5 g/ha: 62.5 g ai/ha, read-out: Velvetleaf damage rating (100=total damage to plant; 0=no damage to plant); for pest or weed control at 62.5 g/ha / pest or weed control at 250 g/ha: evaluated after 13 days; for pest or weed control at 250 g/ha: 250 g ai/ha, read-out: damage to plant, Velvetleaf (100=total damage to plant; 0=no damage to plant)
Method in brief: (§2)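 Foliar application was made 8 days after sowing, using an aqueous spray of the active in acetone/water (50:50) with 0.5% Tween 20, at doses of 15.625, 62.5 or 250 g/ha. Injury was assessed 13 days later, where 100 meant the plant was fully damaged.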

[8] = tested on: ivy-leaved morning glory (Ipomoea hederacea); assay: Test G Post-Emergence Protocol; settings: Ipomoea, post-emergence, 312 h; for pest or weed control at 15.625 g/ha: 15.625 g ai/ha, evaluated after 13 days (100=total damage to plant; 0=no damage to plant), read-out: Morningglory, Ivy-leaved damage rating; for pest or weed control at 62.5 g/ha: 62.5 g ai/ha, read-out: Morningglory, Ivy-leaved damage rating (100=total damage to plant; 0=no damage to plant); for pest or weed control at 62.5 g/ha / pest or weed control at 250 g/ha: evaluated after 13 days; for pest or weed control at 250 g/ha: 250 g ai/ha, read-out: damage to plant, Morningglory, Ivy-leaved (100=total damage to plant; 0=no damage to plant)
Method in brief: as §2

[9] = tested on: redroot pigweed (Amaranthus retroflexus); assay: Test G Post-Emergence Protocol; settings: Amaranthus retroflexus, post-emergence, 312 h; for pest or weed control at 15.625 g/ha: 15.625 g ai/ha, evaluated after 13 days (100=total damage to plant; 0=no damage to plant), read-out: Pigweed, Redroot damage rating; for pest or weed control at 62.5 g/ha: 62.5 g ai/ha, read-out: Pigweed, Redroot damage rating (100=total damage to plant; 0=no damage to plant); for pest or weed control at 62.5 g/ha / pest or weed control at 250 g/ha: evaluated after 13 days; for pest or weed control at 250 g/ha: 250 g ai/ha, read-out: damage to plant, Pigweed, Redroot (100=total damage to plant; 0=no damage to plant)
Method in brief: as §2

corn (Zea mays) [10] = assay: Test G Post-Emergence Protocol; settings: Zea mays, post-emergence, 312 h; for plant injury at 15.625 g/ha: 15.625 g ai/ha, evaluated after 13 days (100=total damage to plant; 0=no damage to plant), read-out: Corn damage rating; for plant injury at 62.5 g/ha: 62.5 g ai/ha, read-out: Corn damage rating (100=total damage to plant; 0=no damage to plant); for plant injury at 62.5 g/ha / plant injury at 250 g/ha: evaluated after 13 days; for plant injury at 250 g/ha: 250 g ai/ha, read-out: damage to plant, Corn (100=total damage to plant; 0=no damage to plant)
Method in brief: as §2

[11] = tested on: giant foxtail (Setaria faberi); assay: Test G Post-Emergence Protocol; settings: Setaria faberi, post-emergence, 312 h; for pest or weed control at 15.625 g/ha: 15.625 g ai/ha, evaluated after 13 days (100=total damage to plant; 0=no damage to plant), read-out: Foxtail, Giant damage rating; for pest or weed control at 62.5 g/ha: 62.5 g ai/ha, read-out: Foxtail, Giant damage rating (100=total damage to plant; 0=no damage to plant); for pest or weed control at 62.5 g/ha / pest or weed control at 250 g/ha: evaluated after 13 days; for pest or weed control at 250 g/ha: 250 g ai/ha, read-out: damage to plant, Foxtail, Giant (100=total damage to plant; 0=no damage to plant)
Method in brief: as §2

[12] = tested on: barnyardgrass (Echinochloa crus-galli); assay: Test G Post-Emergence Protocol; settings: Echinochloa crus-galli, post-emergence, 312 h; for pest or weed control at 15.625 g/ha: 15.625 g ai/ha, evaluated after 13 days (100=total damage to plant; 0=no damage to plant), read-out: Barnyardgrass damage rating; for pest or weed control at 62.5 g/ha: 62.5 g ai/ha, read-out: Barnyardgrass damage rating (100=total damage to plant; 0=no damage to plant); for pest or weed control at 62.5 g/ha / pest or weed control at 250 g/ha: evaluated after 13 days; for pest or weed control at 250 g/ha: 250 g ai/ha, read-out: damage to plant, Barnyardgrass (100=total damage to plant; 0=no damage to plant)
Method in brief: as §2

CN1C[C@@H](c2ccc(C(F)(F)F)cc2)[C@H](C(=O)Nc2ncnn2C)C1=O (racemic) [Compound 1643]
0%: pest or weed control at 15.625 g/ha [1] | pest or weed control at 62.5 g/ha [1] | pest or weed control at 250 g/ha [1] | pest or weed control at 15.625 g/ha [2] | pest or weed control at 62.5 g/ha [2] | pest or weed control at 250 g/ha [2] | pest or weed control at 15.625 g/ha [3] | pest or weed control at 62.5 g/ha [3] | pest or weed control at 250 g/ha [3] | plant injury at 15.625 g/ha (corn (Zea mays) [4]) | plant injury at 62.5 g/ha (corn (Zea mays) [4]) | plant injury at 250 g/ha (corn (Zea mays) [4]) | pest or weed control at 15.625 g/ha [5] | pest or weed control at 62.5 g/ha [5] | pest or weed control at 250 g/ha [5] | pest or weed control at 15.625 g/ha [6] | pest or weed control at 62.5 g/ha [6] | pest or weed control at 250 g/ha [6] | pest or weed control at 15.625 g/ha [7] | pest or weed control at 62.5 g/ha [7] | pest or weed control at 250 g/ha [7] | pest or weed control at 15.625 g/ha [8] | pest or weed control at 62.5 g/ha [8] | pest or weed control at 250 g/ha [8] | pest or weed control at 15.625 g/ha [9] | pest or weed control at 62.5 g/ha [9] | pest or weed control at 250 g/ha [9] | plant injury at 15.625 g/ha (corn (Zea mays) [10]) | plant injury at 62.5 g/ha (corn (Zea mays) [10]) | plant injury at 250 g/ha (corn (Zea mays) [10]) | pest or weed control at 15.625 g/ha [11] | pest or weed control at 62.5 g/ha [11] | pest or weed control at 250 g/ha [11] | pest or weed control at 15.625 g/ha [12] | pest or weed control at 62.5 g/ha [12] | pest or weed control at 250 g/ha [12]

Cc1cnc(NC(=O)[C@@H]2C(=O)N(C)C[C@H]2c2ccc(C(F)(F)F)cc2)cn1 (racemic) [Compound 1648]
0%: pest or weed control at 15.625 g/ha [1] | pest or weed control at 62.5 g/ha [1] | pest or weed control at 250 g/ha [1] | pest or weed control at 15.625 g/ha [2] | pest or weed control at 62.5 g/ha [2] | pest or weed control at 250 g/ha [2] | pest or weed control at 15.625 g/ha [3] | pest or weed control at 62.5 g/ha [3] | pest or weed control at 250 g/ha [3] | plant injury at 15.625 g/ha (corn (Zea mays) [4]) | plant injury at 62.5 g/ha (corn (Zea mays) [4]) | plant injury at 250 g/ha (corn (Zea mays) [4]) | pest or weed control at 15.625 g/ha [5] | pest or weed control at 62.5 g/ha [5] | pest or weed control at 250 g/ha [5] | pest or weed control at 15.625 g/ha [6] | pest or weed control at 62.5 g/ha [6] | pest or weed control at 250 g/ha [6] | pest or weed control at 15.625 g/ha [7] | pest or weed control at 62.5 g/ha [7] | pest or weed control at 250 g/ha [7] | pest or weed control at 15.625 g/ha [8] | pest or weed control at 62.5 g/ha [8] | pest or weed control at 250 g/ha [8] | pest or weed control at 15.625 g/ha [9] | pest or weed control at 62.5 g/ha [9] | pest or weed control at 250 g/ha [9] | plant injury at 15.625 g/ha (corn (Zea mays) [10]) | plant injury at 62.5 g/ha (corn (Zea mays) [10]) | plant injury at 250 g/ha (corn (Zea mays) [10]) | pest or weed control at 15.625 g/ha [11] | pest or weed control at 62.5 g/ha [11] | pest or weed control at 250 g/ha [11] | pest or weed control at 15.625 g/ha [12] | pest or weed control at 62.5 g/ha [12] | pest or weed control at 250 g/ha [12]
